Patent US6783949B1, “Processes for determining whether a test substance contains lipases or lipase inhibitors” (Aventis Pharma Deutschland GmbH, priority 1999, dated 2004)

What was measured:
Type in all cases: biochemical
[1] = target: T1, LPL from rat adipocytes (Rattus norvegicus, UniProt Q06000); assay: Cleavage of NAG by LPL; conditions: for Increase in the absorption at 481 nm: 60 min, NAG 0.05 mg/ml
T1 construct: 75 μg of partially purified LPL from rat adipocytes; from tissue; host or cells: rat adipocytes
T1 sequence (Q06000 28-474): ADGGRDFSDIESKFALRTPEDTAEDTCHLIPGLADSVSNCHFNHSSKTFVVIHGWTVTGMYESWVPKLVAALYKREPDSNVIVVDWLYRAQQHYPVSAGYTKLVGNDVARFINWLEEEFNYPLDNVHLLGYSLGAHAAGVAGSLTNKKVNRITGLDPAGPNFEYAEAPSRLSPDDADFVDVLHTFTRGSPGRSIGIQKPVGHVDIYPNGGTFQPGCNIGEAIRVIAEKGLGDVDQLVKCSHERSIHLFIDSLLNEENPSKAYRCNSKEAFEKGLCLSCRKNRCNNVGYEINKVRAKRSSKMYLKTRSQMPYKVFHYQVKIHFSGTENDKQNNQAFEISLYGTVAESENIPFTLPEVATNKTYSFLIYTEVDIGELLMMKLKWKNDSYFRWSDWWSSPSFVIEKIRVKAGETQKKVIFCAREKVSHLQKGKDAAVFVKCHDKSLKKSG

[2] = test system: bacterial lipase; assay: Cleavage of NAG by bacterial lipase; conditions: for Increase in the absorption at 481 nm: Bacterial lipase, 60 min, NAG 0.05 mg/ml
[3] = test system: PLA2 from snake venom; assay: Cleavage of NAG by PLA2; conditions: 60 min, NAG 0.05 mg/ml

With `O=C(CCCCCCCCCCCNc1ccc([N+](=O)[O-])c2nonc12)OCC(O)CO` (centres unmarked) [Compound (3)] the “Activity relative to HSL” value ([1]; conditions optimized for HSL) was roughly 70%, the “Increase in the absorption at 481 nm” value ([1]; enzyme 10 arb. units) was 105 ± 14 arb. units and the “Increase in the absorption at 481 nm” value ([1]; enzyme 20 arb. units) was 187 ± 17 arb. units. The “Increase in the absorption at 481 nm” value ([1]; enzyme 50 arb. units) was 489 ± 31 arb. units, the “Increase in the absorption at 481 nm” value ([1]; enzyme 75 arb. units) was 773 ± 56 arb. units and the “Increase in the absorption at 481 nm” value ([1]; enzyme 100 arb. units) was 948 ± 72 arb. units. For the same molecule, the “Increase in the absorption at 481 nm” value ([1]; enzyme 150 arb. units) was 1487 ± 132 arb. units, the “Increase in the absorption at 481 nm” value ([1]; enzyme 200 arb. units) was 1952 ± 173 arb. units and the “Increase in the absorption at 481 nm” value ([1]; enzyme 250 arb. units) was 2638 ± 213 arb. units. The “Increase in the absorption at 481 nm” value ([1]; enzyme 300 arb. units) was 2945 ± 250 arb. units, the “Increase in the absorption at 481 nm” value ([1]; enzyme 400 arb. units) was 3512 ± 288 arb. units and the “Increase in the absorption at 481 nm” value ([2]; enzyme 10 arb. units) was 36 ± 7 arb. units. For the same molecule, the “Increase in the absorption at 481 nm” value ([2]; enzyme 20 arb. units) was 81 ± 10 arb. units, the “Increase in the absorption at 481 nm” value ([2]; enzyme 50 arb. units) was 148 ± 18 arb. units and the “Increase in the absorption at 481 nm” value ([2]; enzyme 75 arb. units) was 238 ± 29 arb. units. The “Increase in the absorption at 481 nm” value ([2]; enzyme 100 arb. units) was 341 ± 39 arb. units, the “Increase in the absorption at 481 nm” value ([2]; enzyme 150 arb. units) was 467 ± 57 arb. units and the “Increase in the absorption at 481 nm” value ([2]; enzyme 200 arb. units) was 748 ± 70 arb. units. For the same molecule, the “Increase in the absorption at 481 nm” value ([2]; enzyme 250 arb. units) was 904 ± 83 arb. units, the “Increase in the absorption at 481 nm” value ([2]; enzyme 300 arb. units) was 1056 ± 143 arb. units and the “Increase in the absorption at 481 nm” value ([2]; enzyme 400 arb. units) was 1270 ± 187 arb. units. For the same molecule, the “Activity relative to HSL” value ([2]; bacterial lipase, conditions optimized for HSL) was 25%, the “Increase in the absorption at 481 nm” value ([3]; PLA2, enzyme 10 arb. units) was 1 ± 1 arb. units and the “Increase in the absorption at 481 nm” value ([3]; PLA2, enzyme 20 arb. units) was 3 ± 2 arb. units. For the same molecule, the “Increase in the absorption at 481 nm” value ([3]; PLA2, enzyme 50 arb. units) was 5 ± 1 arb. units, the “Increase in the absorption at 481 nm” value ([3]; PLA2, enzyme 75 arb. units) was 8 ± 2 arb. units and the “Increase in the absorption at 481 nm” value ([3]; PLA2, enzyme 100 arb. units) was 10 ± 2 arb. units. The “Increase in the absorption at 481 nm” value ([3]; PLA2, enzyme 150 arb. units) was 26 ± 6 arb. units, the “Increase in the absorption at 481 nm” value ([3]; PLA2, enzyme 200 arb. units) was 35 ± 9 arb. units and the “Increase in the absorption at 481 nm” value ([3]; PLA2, enzyme 250 arb. units) was 46 ± 12 arb. units. The “Increase in the absorption at 481 nm” value ([3]; PLA2, enzyme 300 arb. units) was 54 ± 9 arb. units and the “Increase in the absorption at 481 nm” value ([3]; PLA2, enzyme 400 arb. units) was 75 ± 11 arb. units.
